Source: paper PMC12738692, “Identification, characterization, and structure-activity relationship of the ASIC3-selective peptide WRPRFa” (Communications Chemistry, 2025)
Numbering of substitutions follows the chain as printed. Where no end group is shown, it is not given here.

Tests used:
Type in all cases: cell-based
ASIC3 E378Q = target: T1, ASIC3 E378Q (Homo sapiens, UniProt Q9UHC3, E378Q); assay: MPC peptide activity on ASIC3 E378Q mutant; settings: read-out: EC50 (95% CI)
T1 construct: human ASIC3 (NM_004769.4); P2A-mCherry reporter (C, cleaved yes); expressed in transfected cells; host or cells: CHO cells (85050302, Sigma), transient transfection
T1 sequence (Q9UHC3 1-531 E378Q): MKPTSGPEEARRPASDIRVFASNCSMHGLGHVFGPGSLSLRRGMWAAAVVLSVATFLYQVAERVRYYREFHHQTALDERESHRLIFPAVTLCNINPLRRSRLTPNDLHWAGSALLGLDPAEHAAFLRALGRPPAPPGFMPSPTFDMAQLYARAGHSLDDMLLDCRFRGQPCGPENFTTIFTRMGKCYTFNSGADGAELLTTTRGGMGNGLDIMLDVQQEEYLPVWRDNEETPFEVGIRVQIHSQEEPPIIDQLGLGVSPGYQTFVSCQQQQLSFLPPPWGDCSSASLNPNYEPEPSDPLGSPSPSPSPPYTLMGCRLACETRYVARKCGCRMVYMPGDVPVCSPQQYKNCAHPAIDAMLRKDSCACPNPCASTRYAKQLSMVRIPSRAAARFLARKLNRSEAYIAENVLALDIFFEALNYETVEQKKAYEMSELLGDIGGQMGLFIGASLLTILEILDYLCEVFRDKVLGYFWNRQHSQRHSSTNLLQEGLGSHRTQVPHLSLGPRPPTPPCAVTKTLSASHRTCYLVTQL
Protocol: (§1) We individually mutated the four glutamates to glutamine to remove their charge but maintain the side chain structure (Fig. 4C). We tested each mutant by incubating HEK cells stably expressing ASIC3 or CHO cells transfected with mutant ASIC3 with 30 µM WRPRFa before a pH 6.3 acid stimulus.
(§2) All mutagenesis was performed at Genscript, and sequences were verified by nanopore sequencing by Plasmidsaurus (Eugene, OR). The numbering of ASIC3 amino acids is based on RefSeq NP_004760.1. Plasmids were transfected into CHO cells using Lipofectamine 3000 (Thermo) according to the manufacturer’s protocol. Cells were used for patch-clamp recordings 24–48 h after transfection.
(§3) CHO and HEK cells were tested in the whole-cell configuration on MPC platforms using an Axopatch 200B amplifier (Axon Instruments, San Jose, CA) and a Digidata 1322A or Digidata 1440A digitizer (Axon) using pClamp 9.2 or 10.7 (Molecular Devices, San Jose, CA), respectively. When testing transfected cells, red fluorescence from the cleaved mCherry reporter was used to identify cells expressing ASIC3, ASIC131, or ASIC313. For cells expressing transfected ASIC1a or ASIC2a, the green signal from the cleaved eGFP reporter was used. All electrophysiology data were analyzed with Clampfit 11.1 (Molecular Devices).

ASIC3 E416Q = target: T2, ASIC3 E416Q (Homo sapiens, UniProt Q9UHC3, E416Q); assay: MPC peptide activity on ASIC3 E416Q mutant (incl. double mutant cycle); settings: read-out: EC50 (95% CI)
T2 construct: human ASIC3 (NM_004769.4); P2A-mCherry reporter (C, cleaved yes); expressed in transfected cells; host or cells: CHO cells (85050302, Sigma), transient transfection
T2 sequence (Q9UHC3 1-531 E416Q): T1 sequence (Q9UHC3 1-531 E378Q) with Q378E, E416Q
Protocol: as §1, §2, §3

ASIC313 = target: T3, ASIC313 (Homo sapiens, UniProt Q9UHC3); assay: MPC WRPRFa concentration-response on concatemer ASIC313; settings: read-out: lower limit EC50
T3 construct: placing human ASIC1a and human ASIC3 ORFs in tandem; P2A-mCherry reporter (C, cleaved yes); expressed in transfected cells; host or cells: WT CHO cells (85050302, Sigma), transient transfection
T3 sequence (Q9UHC3 1-531) 1: T1 sequence (Q9UHC3 1-531 E378Q) with Q378E
T3 sequence (Q9UHC3 1-531) 2: T1 sequence (Q9UHC3 1-531 E378Q) with Q378E
Description: For peptide concentration-response curves, Bottom was set to 0 and Top was constrained to ≤ 1 for peptides that approached plateau phase or where I3s/Ipk reached 1. […] For activation- or desensitization-pH curves, Bottom was set to 0 and Top constrained to 1.

human ASIC3 = target: T4, human ASIC3 (Homo sapiens, UniProt Q9UHC3); assay: Time-dependence of WRPRFa wash off from activated (pH 6.3) and resting (pH 8.0) ASIC3
T4 construct: CHO cells stably expressing human ASIC3 (NM_004769.1)
T4 sequence (Q9UHC3 1-531): T1 sequence (Q9UHC3 1-531 E378Q) with Q378E
Protocol: Next, we assessed the rate at which WRPRFa leaves the channel from the activated and closed states. We preincubated cells with WRPRFa to load channels with peptide, then used two different protocols to remove the peptide. For dissociation from the activated state, we preincubated cells at pH 8.0 with 30 µM WRPRFa, then continuously applied pH 6.3 without WRPRFa to activate the channels while washing off bound peptide. HEK cells poorly tolerate long periods of acid application and sodium influx, so acid application was kept to 1 min. […] The first decrease of current likely arose from desensitization of unbound channels, and possibly also from an initial dissociation of peptide from activated channels, which subsequently desensitized.
For dissociation from resting state channels, we continuously applied pH 8.0 without peptide to remove WRPRFa. Every 20 s the cells were given a 5 s application of pH 6.3 to quantify the remaining sustained current. A 5 s activation was used to minimize wash-off from the activated state, which was deemed negligible based on the observed off-rate under the pH 6.3 condition. The sustained current was about 95% gone after 3 min, with a time constant of 43.5 s (95% CI: 39.0–48.4 s) (Fig. 3D and E). […]

In the case of WRPRF-NH2 [WRPRFa], the EC50 (ASIC3 E378Q) is reported as 9.59 µM, the EC50 (ASIC3 E416Q) is reported as 2.47 µM and the EC50 (ASIC313) is reported as at least 12.6 µM. For the same substance, the “current decrease within first 10 s at pH 6.3” value (human ASIC3; activated state wash off) was “about 22%” and the “sustained current gone after 3 min” value (human ASIC3; pH 8.0 wash off) was “about 95%”.
